Measurements from US20230079448A1, “DEVICES AND METHODS FOR NEGATIVE PRESSURE THERAPY” (APPLIED TISSUE TECHNOLOGIES LLC, priority 2020, published 2023).

Assays:
[1] = Activity of gel-based therapeutics after short-term storage; assay type: physicochemical; settings: 0.5% (agarose) hydrogel
Excerpt: According to Table 1, gel-therapeutic agent preparations comprising an antibiotic and a 0.5% (agarose) hydrogel may be stable for up to one week. Drugs dissolve passively into the gel and stay stable over time. In some embodiments, the gel-therapeutic agent preparation may further comprise saline. The gel may be biocompatible, meaning that it is structurally similar to the extracellular matrix in tissues. The gel may be flowable, allowing, for example, casting into a mold or injection via needle through a port. The loading of the […] agent preparation in the device may allow consistent and uniform contact with the skin even with patient movement, maintaining continuous delivery of the therapeutic agent to the underlying tissue. The gel-therapeutic agent preparation may prevent loss of the therapeutic agent in the event of a minor leak in the adhesive of the sealing portion of the device.

common bacteria = settings: typical value; cited from earlier work

Molecule: Gentamicin
- Drug activity ([1]; after 3 days storage): 2.41 µg/mL
- Drug activity ([1]; after 7 days storage): 2.04 µg/mL
- MIC (common bacteria): around 2 micrograms per mL or cm^3

Molecule: CN[C@H](CC(C)C)C(=O)N[C@H]1C(=O)N[C@@H](CC(N)=O)C(=O)N[C@H]2C(=O)N[C@H]3C(=O)N[C@H](C(=O)N[C@H](C(=O)O)c4cc(O)cc(O)c4-c4cc3ccc4O)[C@H](O)c3ccc(c(Cl)c3)Oc3cc2cc(c3O[C@@H]2O[C@H](CO)[C@@H](O)[C@H](O)[C@H]2O[C@H]2C[C@](C)(N)[C@H](O)[C@H](C)O2)Oc2ccc(cc2Cl)[C@H]1O [vancomycin]
- MIC (common bacteria): around 2 micrograms per mL or cm^3
